Results published in US10705094B2, “TNF receptor signaling modulator assay” (UCB Biopharma SRL, priority 2015, dated 2020).

Assays:
[1] = test system: TNFα stimulated neutrophil recruitment into the peritoneal cavity; experiment: Neutrophil recruitment in mice, compound given orally before i.p. hTNFα; type: in vivo, Balb/c mice
Procedure: In a further experiment, mice were treated with hTNFα ([…]) and the compound of formula (1) was administered orally (p.o.).
The compound of formula (1) was made into a suspension in 1% methylcellulose vehicle using a covaris machine.
An anti-human TNFα monoclonal antibody (anti-hTNFα, UCB) was also utilised as a positive control in this study.
Ten male Balb/c mice were used per group except in the group that received anti-hTNFα for which 4 mice were used.
All mice were killed by cervical dislocation two hours post-injection of hTNFα (t=2 h) and the peritoneal cavity was lavaged and neutrophil numbers measured as described above.

TNFα = TNFα (Homo sapiens, UniProt P01375); experiment: Surface plasmon resonance kinetics of compound binding to immobilised TNFα (Biacore T100/T200); conditions: for dissociation half-life (t1/2): from koff; for kon / koff: immobilised TNFα, HBS-P with 5% DMSO; for koff: read-out: dissociation rate constant (koff)
Procedure: Surface plasmon resonance was used to measure the association rate, the dissociation rate and the affinity of the compounds of formulae (1) and (2) for TNFα (FIGS. 13A and B). For the purpose of this study a Biacore T100/T200 was used.
TNFα was immobilised at pH5 to a level of 5-8 KRU onto a CMS sensor in HBS-P buffer (10 mM HEPES pH 7.4, 0.15 M NaCl, 0.005% Surfactant P20, BIAcore, GE Healthcare). The TNFα was then equilibrated in HBS-P with 5% DMSO for at least 5 hours. The samples were diluted from 10 mM stocks into DMSO matched buffer and left to solubilise for at least 5 hours. The flow rate was 30 μL/min.
This assay was performed by adding 4 or 5 concentrations of compound starting from a highest concentration of 25 μM for compound of formula (1) and 1 μM for compound of formula (2) and then serially diluting this sample. Background subtraction binding curves were analysed using the BIAevaluation software following standard procedures. Binding, affinity and kinetic parameters were determined using Biacore software. The kinetic data were fitted using the levenberg marquardt algorithm.

TNFα trimer = TNFα trimer (Homo sapiens, UniProt P01375); experiment: Mass spectrometric analysis of compound binding to and stabilisation of TNFα trimer
Procedure: Mass spectrometry was typically performed using a Waters LCT-premier Time-of-Flight mass spectrometer or a Waters SynaptG2 Q-TOF mass spectrometer. Samples were introduced using an Advion Triversa Nanomate nanoflow infusion device which replaces the conventional spectrometer source, sample injection was via an “A” series chip with […] nozzle size at a nominal flow rate of 100 nl/min. Further modifications to the Waters LCT-premier Time-of-Flight mass spectrometer include a customised source cooling device allowing precise control of the source temperature and a commercial pressure regulation device giving precise control over the vacuum conditions in the source region. Together these modifications help retain the TNFα trimer in a native, folded conformation and facilitate the detection of complexes formed with test compounds of weak affinities.
Ions were generated using standard positive ion electrospray conditions resulting in multiple charging of TNFα.
Mass spectrometry is very sensitive to the buffer salts present in the protein sample. Typical buffer salts such as potassium or sodium phosphates have a severely detrimental affect on ionisation. Accordingly protein samples were pre-treated to remove these salts using a Zeba desalt spin column, the protein being exchanged into a mass spectrometry compatible buffer system, typically 50 mM Ammonium Acetate at pH 6.8.
Typically the test compounds were presented as 10 mM DMSO stock solutions such that when they are incubated with TNFα in solution the final DMSO concentration is 5%. […] This is evidenced by the changes in the number of charges acquired by the protein under the various conditions described.
Test compounds were prepared as 10 mM solutions in dimethylsulphoxide (DMSO). Therefore, it was necessary to establish the effect of DMSO on the native TNFα trimer in the absence of a test compound. DMSO was added to an aqueous solution of TNFα trimer to give a final concentration of 5% v/v and the mass spectrum acquired.
The compound of formula (1) was added to a solution containing TNFα and 5% v/v DMSO and the mass spectrum acquired.
Further evidence for the stabilization of the trimeric form of TNFα by the test compounds was obtained from analyzing the samples under harsher ionization conditions that tend to favour breakdown of the native trimeric form into monomers.
Incubation of a library of test compounds, including the compound of formula (1) with TNFα was monitored by mass spectrometry under soft ionization conditions. […] This confirms that the test compounds, including the compound of formula (1), have a different mode of action to known compounds, which stabilize the dimeric form of TNFα.
A species of lower molecular weight (˜473 Da appears to bind at less than 5% occupancy). C87 has a molecular weight of 503 Da.

[2] = test system: activation of NF-κB by IL-1β; experiment: HEK-293 NF-κB SEAP reporter gene assay, IL-1β counterscreen; type: cell-based; conditions: Homo sapiens, HEK293; HEK-293 reporter cells, IL-1β 0.5 ng/ml
Procedure: (§1) Stimulation of HEK-293 cells by TNF-alpha leads to activation of the NF-kB pathway. The reporter cell line used to determine TNF alpha activity was purchased from Invivogen. HEK-Blue™ CD40L, is a stable transfectant expressing SEAP (secreted alkaline phosphatase) under the control of the IFN-beta minimal promoter fused to 5 NF-kB binding sites. Secretion of SEAP by these cells is stimulated in a concentration dependent manner by TNF-alpha (0.5 ng/ml), IL-1-beta (0.5 ng/ml) and an activating anti-human TNFR1 antibody (300 ng/ml).
(§2) Compounds were diluted from 10 mM DMSO stocks (final assay concentration 0.3%) to generate a 10 point 3 fold serial dilution curve (30,000 nM to 2 nM final concentration). They were mixed with stimulating ligand for 1 hour in a 384 well microtitre plate. Freshly thawed and washed cells were added to the compound/stimulus mixture and further incubated for 18 hours. SEAP activity was determined in the supernatant using the colorimetric substrate Quanti-Blue™ (Invivogen).
(§3) Percentage inhibitions for compound dilutions were calculated between a DMSO control and maximum inhibition (by excess control compound) and an IC50 calculated using xlfit (4 parameter logistic model) in Activity Base.
(§4) The specific activity of each compound against the TNF-alpha response was compared to that seen with the counterscreens (IL-1beta and anti-human TNFR1 antibody).

[3] = test system: activation of NF-κB by activating anti-human TNFR1 antibody; experiment: HEK-293 NF-κB SEAP reporter gene assay, activating TNF-R1 antibody counterscreen; type: cell-based; conditions: HEK293, HEK-293 reporter cells, antibody 300 ng/ml
Procedure: as §1, §2, §3, §4

[4] = test system: activation of NF-κB by TNFα; experiment: HEK-293 NF-κB SEAP reporter gene assay, TNFα stimulus; type: cell-based; conditions: Homo sapiens, HEK293; HEK-293 reporter cells, TNFα 0.5 ng/ml
Procedure: as §1
as §2, with “Freshly thawed and washed cells were added to the compound/stimulus mixture and further incubated for 18 hours.” left out
Percentage inhibitions for compound dilutions were calculated between a DMSO control and maximum inhibition (by excess control compound) and an IC50 calculated using xlfit (4 parameter logistic model) in Activity Base. […]
C87 was preincubated with TNFα for 1 hour prior to the addition to HEK-293 cells stably transfected with SEAP under the control of NFκB. […] The assay was incubated overnight before inhibition was measured compared to 100% blocking by a control compound. […]

Chain of TNFα trimer (P01375 77-233 limits assumed): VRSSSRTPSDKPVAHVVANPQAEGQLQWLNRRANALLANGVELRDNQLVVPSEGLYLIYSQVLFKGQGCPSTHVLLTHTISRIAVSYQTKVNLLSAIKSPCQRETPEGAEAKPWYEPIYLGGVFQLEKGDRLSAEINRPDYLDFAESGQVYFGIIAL
Chain of TNFα (P01375 77-233 limits assumed): as above

| Structure (SMILES) | reduction of TNFα stimulated neutrophil recruitment into the peritoneal cavity ([1]; 30 mg/kg p.o. 30 minutes before hTNFα 0.03 μg/kg i.p.) | reduction of TNFα stimulated neutrophil recruitment into the peritoneal cavity ([1]; 100 mg/kg p.o. 30 minutes before hTNFα 0.03 μg/kg i.p.) | Kd (TNFα; calculated from koff/kon, read-out: dissociation constant (KD)) | dissociation half-life (t1/2) (TNFα) | kon (TNFα) | koff (TNFα) | stabilisation of trimeric TNFα (charge state envelope) (TNFα trimer; 5% v/v DMSO, soft ionisation) | quantity of TNFα monomer detected (TNFα trimer; harsher ionization conditions, data not shown) | binding to the monomeric form of TNFα (TNFα trimer; soft ionization conditions) | stabilization of the dimeric form of TNFα (TNFα trimer; soft ionization conditions) | stoichiometry of binding (TNFα trimer; soft ionization conditions) | IC50 [2] | IC50 [3] | IC50 [4] |
| --- | --- | --- | --- | --- | --- | --- | --- | --- | --- | --- | --- | --- | --- | --- |
| Cc1ccc(C)c(Cn2c(C(O)c3ccncc3)nc3ccccc32)c1 (centres unmarked) [Compound (1), [1-(2,5-Dimethylbenzyl)-1H-benzimidazol-2-yl](pyridin-4-yl)methanol] | 49% | 79% | 35 nM | over 2 hours | 2670 M⁻¹ s⁻¹ | 9.46e-05 s⁻¹ | stabilization of the trimeric TNFα complex over and above that observed in the absence of DMSO | significantly reduced | not observed to bind | no evidence for stabilization | one molecule of the compound of formula (1) per TNFα trimer | – | – | – |
| Cc1ccc(C)c(Cn2c(C(O)c3ccncc3)nc3ccc(-c4cnn(C)c4)cc32)c1 (centres unmarked) [Compound (2), [1-(2,5-Dimethylbenzyl)-6-(1-methyl-1H-pyrazol-4-yl)-1H-benzimidazol-2-yl](pyridin-4-yl)methanol] | – | – | – | > 8 h | 1120 M⁻¹ s⁻¹ | 2.24e-05 s⁻¹ | – | – | – | – | – | > 30000 nM | > 30000 nM | 113 nM |
